Patent US7375058B2, “Herbicidal mixtures based on 3-phenyluracils” (priority 2002, dated 2008)
Where a name gives a salt, the structure may show the parent alone.

What was measured:
[1] = tested on: ALOMY; experiment: Greenhouse post-emergence herbicidal action against ALOMY; assay type: in vivo, Alopecurus myosuroides; conditions: 21 days
From the text: (§1) For the post-emergence treatment, the test plants were first grown to a height of 3 to 20 cm, depending on the plant habit, and only then treated. Here, the herbicidal compositions were suspended or emulsified in water as distribution medium and sprayed using finely distributing nozzles
(§2) The respective components A and B and/or C were formulated as 10% by weight strength emulsion concentrate and introduced to the spray liquor with the amount of solvent system used for applying the active compound. In the examples, the solvent used was water.
(§3) The test period extended over 21 days. During this time, the plants were tended, and their response to the treatments with active compound was evaluated.
(§4) The evaluation for the damage caused by the chemical compositions was carried out using a scale from 0 to 100%, compared to the untreated control plants. Here, 0 means no damage and 100 means complete destruction of the plants.
(§5) In the examples below, the value E which is to be expected if the activity of the individual compounds is just additive was calculated using the method of S. R. Colby (1967) “Calculating synergistic and antagonistic responses of herbicide combinations”, Weeds 15, p. 22 ff. E=X+Y−([…]) where • X=effect in percent using active compound A at an application rate a; • Y=effect in percent using active compound B at an application rate b; • E=expected effect (in %) of A+B at application rates a+b.
(§6) If the observed effect is higher than the value E calculated according to Colby, a synergistic effect is present.

[2] = tested on: BIDPI; experiment: Greenhouse post-emergence herbicidal action against BIDPI; assay type: in vivo, Bidens pilosa
From the text: as §1, §2, §3, §4, §5, §6

[3] = tested on: BRAPL; experiment: Greenhouse post-emergence herbicidal action against BRAPL; assay type: in vivo, Brachiaria plantaginea
From the text: as §1, §2, §3, §4, §5, §6

[4] = tested on: ECHCG; experiment: Greenhouse post-emergence herbicidal action against ECHCG; assay type: in vivo, Echinochloa crus-galli
From the text: as §1, §2, §3, §4, §5, §6

[5] = tested on: ABUTH; experiment: Greenhouse post-emergence herbicidal action against ABUTH; assay type: in vivo, Abutilon theophrasti
From the text: as §1, §2, §3, §4, §5, §6

[6] = tested on: COMBE; experiment: Greenhouse post-emergence herbicidal action against COMBE; assay type: in vivo, Commelina benghalensis
From the text: as §1, §2, §3, §4, §5, §6

[7] = tested on: GALAP; experiment: Greenhouse post-emergence herbicidal action against GALAP; assay type: in vivo, Galium aparine
From the text: as §1, §2, §3, §4, §5, §6

[8] = tested on: SETFA; experiment: Greenhouse post-emergence herbicidal action against SETFA; assay type: in vivo, Setaria faberii
From the text: as §1, §2, §3, §4, §5, §6

[9] = tested on: POLPE; experiment: Greenhouse post-emergence herbicidal action against POLPE; assay type: in vivo, Polygonum persicaria; conditions: 21 days
From the text: as §1, §2, §3, §4, §5, §6

[10] = tested on: AMARE; experiment: Greenhouse post-emergence herbicidal action against AMARE; assay type: in vivo, Amaranthus retroflexus
From the text: as §1, §2, §3, §4, §5, §6

[11] = I.14 0.49 g/ha and/or b13.3 62.5 g/ha
[12] = I.14 0.98 g/ha and/or b13.3 125 g/ha
[13] = I.14 0.49 g/ha and/or b10.3 62.5 g/ha
[14] = I.14 0.49 g/ha and/or b10.3 + c.2 62.5 + 3.13 g/ha
[15] = I.14 0.49 g/ha and/or b11.1 62.5 g/ha
[16] = I.14 0.98 g/ha and/or b10.3 125 g/ha
[17] = I.14 0.98 g/ha and/or b10.3 + c.2 125 + 6.25 g/ha
[18] = I.14 0.98 g/ha and/or b11.1 125 g/ha
[19] = I.1 0.49 g/ha and/or b14.1 7.81 g/ha
[20] = I.1 0.98 g/ha and/or b14.1 15.63 g/ha

Structure (SMILES): CC(C)CN(C)S(=O)(=O)NC(=O)c1cc(-n2c(=O)cc(C(F)(F)F)n(N)c2=O)c(F)cc1Cl [I.14]
- Herbicidal action against ALOMY found ([1]; application rate g/ha: I.14 0.49, b2.3 0.98): 0%
- Herbicidal action against ALOMY found ([1]; application rate g/ha: I.14 0.98, b2.3 1.95): 0%
- Herbicidal action against BIDPI found ([2]; 21 days, application rate g/ha: I.14 1.95, b10.2 250): 40%
- Herbicidal action against BIDPI found ([2]; 21 days, application rate g/ha: I.14 3.91, b10.2 500): 85%
- Herbicidal action against BRAPL found ([3]; 21 days, application rate g/ha: I.14 0.49, b2.3 0.98): 0%
- Herbicidal action against BRAPL found ([3]; 21 days, application rate g/ha: I.14 0.98, b2.3 1.95): 0%
- Herbicidal action against BRAPL found [3, 11]: 10%
- Herbicidal action against BRAPL found [3, 12]: 15%
- Herbicidal action against ECHCG found ([4]; I.14 1.95 g/ha and/or b13.2 125 g/ha): 40%
- Herbicidal action against ECHCG found ([4]; I.14 3.91 g/ha and/or b13.2 250 g/ha): 70%
- Herbicidal action against ABUTH found [5, 11]: 0%
- Herbicidal action against ABUTH found [5, 12]: 20%
- Herbicidal action against COMBE found ([6]; I.14 1.95 g/ha and/or b.15.1 125 g/ha): 0%
- Herbicidal action against COMBE found ([6]; I.14 3.91 g/ha and/or b.15.1 250 g/ha): 40%
- Herbicidal action against GALAP found [7, 13]: 0%
- Herbicidal action against GALAP found [7, 14]: 0%
- Herbicidal action against GALAP found [7, 15]: 0%
- Herbicidal action against GALAP found [7, 16]: 25%
- Herbicidal action against GALAP found [7, 17]: 25%
- Herbicidal action against GALAP found [7, 18]: 25%
- Herbicidal action against SETFA found [8, 13]: 20%
- Herbicidal action against SETFA found [8, 14]: 20%
- Herbicidal action against SETFA found [8, 15]: 20%
- Herbicidal action against SETFA found [8, 16]: 25%
- Herbicidal action against SETFA found [8, 17]: 25%
- Herbicidal action against SETFA found [8, 18]: 25%

Structure (SMILES): CNC.C[C@@H](Oc1ccc(Cl)cc1Cl)C(=O)O [b13.1, dichlorprop-P dimethylammonium salt, reference compound]
- Herbicidal action against POLPE found ([9]; application rate g/ha: I.7 1.95, b13.1 500): 30%
- Herbicidal action against POLPE found ([9]; application rate g/ha: I.7 3.91, b13.1 1000): 30%
- Herbicidal action against COMBE found ([6]; 21 days, application rate g/ha: I.7 1.95, b13.1 500): 40%
- Herbicidal action against COMBE found ([6]; 21 days, application rate g/ha: I.7 3.91, b13.1 1000): 75%

Structure (SMILES): C/C(=N\NC(=O)Nc1cc(F)cc(F)c1)c1ncccc1C(=O)O [b14.1, diflufenzopyr sodium salt, reference compound]
- Herbicidal action against BIDPI found [2, 19]: 20%
- Herbicidal action against BIDPI found [2, 20]: 30%
- Herbicidal action against AMARE found [10, 19]: 0%
- Herbicidal action against AMARE found [10, 20]: 0%
